Assay [1] can be described thus: Compound was evaluated for its inhibitory activity against UV4 cell in the presence of drug alone. The format is functional, cell-based, Cricetulus griseus.
Assay [2] in a line: Ratio of IC50 (drug alone)/IC50(drug+NADH+enzyme). The format is functional.
A short description of assay [3]: Compound was evaluated for its inhibitory activity against UV4 cell in the presence of drug along with NADH and enzyme(Escherichia coli B nitroreductase). The format is functional, cell-based, Cricetulus griseus.
Assay [4] in a line: Compound was evaluated for its inhibitory activity against UV4 cell in the presence of drug and NADH. The format is functional, cell-based, Cricetulus griseus.

Usually IC50 stands for the point on the concentration scale where inhibition reaches its midpoint.

Take `COc1cc2cc(C(=O)N3CC(CCl)c4ccc([N+](=O)[O-])cc43)[nH]c2c(OC)c1OC` (configuration not stated): the figures for the IC50 in assay [1], in assay [3] and in assay [4] were 2310 nM, 6.4 nM and 237 nM, respectively. The Ratio in assay [2] came out at 402.
`COc1cc2cc(C(=O)N3CC(CCl)c4ccc(N)cc43)[nH]c2c(OC)c1OC` (configuration not stated): the IC50 in assay [1] worked out at 23.6 nM; in assay [3], 27.8 nM; in assay [4], 26.6 nM. Also, the Ratio in assay [2] was determined as 23.2.
The corresponding values for `COc1cc2cc(C(=O)N3CC(CCl)c4ccc(NC(=O)OCc5ccc([N+](=O)[O-])cc5)cc43)[nH]c2c(OC)c1OC` (configuration not stated) are 15000 nM, 598 nM, 11300 nM and 0.9.

For the origin of these results see ChEMBL document CHEMBL1128929, “A novel nitro-substituted seco-CI: Application as a reductively activated adept prodrug” (Bioorg Med Chem Lett, 1996).
